Measurements published in ChEMBL document CHEMBL1144900, “Synthesis and SAR of thrombin inhibitors incorporating a novel 4-amino-morpholinone sscaffold: analysis of X-ray crystal structure of enzyme inhibitor complex” (J Med Chem, 2003).

Target: Prothrombin (Homo sapiens, UniProt P00734)
Assay: Inhibitory activity against human thrombin

Row | SMILES | IC50
1 | N=C(N)c1ccc(CNC(=O)CC2OCCN(NS(=O)(=O)c3ccc(F)cc3F)C2=O)cc1 (stereo not given) | 8.14 µM
2 | COc1ccc(OC)c(S(=O)(=O)NN2CCOC(CC(=O)NCc3ccc(C(=N)N)cc3)C2=O)c1 (stereo not given) | 0.13 µM
3 | N=C(N)c1ccc(CNC(=O)CC2OCCN(N(Cc3ccccc3)Cc3ccccc3)C2=O)cc1 (stereo not given) | 19.8 µM
4 | Cc1ccc(CCNN2CCOC(CC(=O)NCc3ccc(C(=N)N)cc3)C2=O)cc1 (stereo not given) | 0.961 µM
5 | N=C(N)c1ccc(CNC(=O)C[C@H]2OCCN(NS(=O)(=O)Cc3ccccc3)C2=O)cc1 | 36.8 µM
6 | N=C(N)c1ccc(CNC(=O)C[C@H]2OCCN(NC(=O)c3ccc(N)cc3)C2=O)cc1 | 150 µM
7 | CC(C)OC(=O)NN1CCO[C@H](CC(=O)NCc2ccc(C(=N)N)cc2)C1=O | 80.6 µM
8 | N=C(N)c1ccc(CNC(=O)C[C@H]2OCCN(NCCCc3ccccc3)C2=O)cc1 | 45.4 µM
9 | N=C(N)c1ccc(CNC(=O)C[C@H]2OCCN(N(CCCc3ccccc3)CCCc3ccccc3)C2=O)cc1 | 36.2 µM
10 | CC(C)(C)OC(=O)NN1CCO[C@H](CC(=O)NCc2ccc(C(=N)N)cc2)C1=O | 54.7 µM
11 | N=C(N)c1ccc(CNC(=O)C[C@@H]2OCCN(NS(=O)(=O)Cc3ccccc3)C2=O)cc1 | 9.15 µM
12 | N=C(N)c1ccc(CNC(=O)C[C@@H]2OCCN(NCCCc3ccccc3)C2=O)cc1 | 4.74 µM
13 | Cc1ccc(C)c(S(=O)(=O)NN2CCOC(CC(=O)NCc3ccc(C(=N)N)cc3)C2=O)c1 (stereo not given) | 0.247 µM
14 | Cc1cc(S(=O)(=O)NN2CCOC(CC(=O)NCc3ccc(C(=N)N)cc3)C2=O)c(C)cc1Cl (stereo not given) | 0.164 µM
15 | N=C(N)c1ccc(CNC(=O)CC2OCCN(NS(=O)(=O)c3ccc4c(c3)CCO4)C2=O)cc1 (stereo not given) | 0.486 µM

Results, then the molecule that gave them:

Row | IC50 | SMILES
16 | 4.88 µM | N=C(N)c1ccc(CNC(=O)CC2OCCN(Nc3ccc(-c4ccccc4)cc3)C2=O)cc1 (stereo not given)
17 | > 32 µM | N=C(N)c1ccc(CNC(=O)CC2OCCN(Nc3cccc(N)c3)C2=O)cc1 (stereo not given)
18 | 13.6 µM | N=C(N)c1ccc(CNC(=O)C[C@H]2OCCN(NCc3ccccc3)C2=O)cc1
19 | > 133 µM | N=C(N)c1ccc(CNC(=O)C[C@H]2OCCN(NCC(=O)c3ccccc3)C2=O)cc1
20 | 106 µM | N=C(N)c1ccc(CNC(=O)C[C@H]2OCCN(NC(=O)c3ccccc3)C2=O)cc1
21 | 37.7 µM | N=C(N)c1ccc(CNC(=O)C[C@H]2OCCN(NS(=O)(=O)c3ccccc3)C2=O)cc1
22 | 35.6 µM | N=C(N)c1ccc(CNC(=O)C[C@H]2OCCN(NCCc3ccccc3)C2=O)cc1
23 | 10.6 µM | N=C(N)c1ccc(CNC(=O)C[C@@H]2OCCN(NCc3ccccc3)C2=O)cc1
24 | 1.79 µM | N=C(N)c1ccc(CNC(=O)C[C@@H]2OCCN(NCCc3ccccc3)C2=O)cc1
25 | 34.4 µM | N=C(N)c1ccc(CNC(=O)CC2OCCN(Nc3ccccc3)C2=O)cc1 (stereo not given)
